Source: US8592552B2 (priority 2007, dated 2013)
Where no end group is shown, it is not given here.

Columns and labels:
[1] = system: African swine fever virus (ASFV) BA71V; type: cell-based

Row | Substance | proliferation of Vero cells (proliferative index) (Vero cells) | I.C.E. at 50 μM (inhibition of the cytopathic effect) [1] | I.C.E. at 100 μM (inhibition of the cytopathic effect) [1]
1 | RRRRRRRRSLVSSDESSSGSSHSSGEHS [RS28] | not modified | – | –
2 | SS20: 20-residue negative control peptide of irrelevant sequence (SLVSSDESSSGSSHSSGEHS) [reference compound] | – | no | no
